Measured values: patent US20240343706A1, “PIPERIDINE-2,6-DIONE DERIVATIVES WHICH BIND TO CEREBLON, AND METHODS OF USE THEREOF” (Captor Therapeutics S.A., priority 2019, published 2024)
pKi: −log10 of the molar value.

Columns and labels:
[1] = molecular target: CRBN-DDB1 protein complex (Homo sapiens, UniProt Q96SW2); experiment: Fluorescence polarization (FP) assay, displacement of Cy5-labelled thalidomide; conditions: 25 nM CRBN-DDB1, 5 nM Cy5-labelled thalidomide, read-out: CRBN binding Ki
Experimental: CRBN-DDB1 protein complex was mixed with Cy5-labelled thalidomide and a compound to be tested (the “test compound”). […] The test solution was added to a 384-well assay plate.
The plate was spun-down (1 min, 1000 rpm, 22° C.) and then shaken using a VibroTurbulator for 10 min at room temperature (20-25° C.), with the frequency set to level 3. The assay plate with protein and the tracer was incubated for 60 min at room temperature (20-25° C.) prior to read-out with a plate reader.
The FP experiment was carried out with various concentrations of the test compounds in order to measure Ki values.

IKZF1 = IKZF1 degradation assay, H929 cell line (western blot densitometry); assay type: cell-based; conditions: H929 cells; for % of protein reduction based on densitometry values, IKZF 1 (24 H): summary Table 10, 20 μM (some compounds 10 and 20 μM); for % of IKZF1 α protein reduction based on densitometry values: 24 h
Text: (§1) After primary and secondary Ab staining, the membranes were washed and signals developed. The densitometry analysis was implemented to obtain the numeric values used later in the protein level evaluation process.

CK1α = CK1α degradation assay, Kelly cell line (western blot densitometry); assay type: cell-based; conditions: Kelly cells; for % of protein reduction based on densitometry values, CK1α (24 H): summary Table 10, 20 μM (some compounds 10 and 20 μM); for % of CK1α protein reduction, based on densitometry values: 24 h
Text: as §1

SALL4 = SALL4 degradation assay, Kelly cell line (western blot densitometry); assay type: cell-based; conditions: Kelly cells; for % of protein reduction based on densitometry values, SALL4 (24 H): summary Table 10, 20 μM (some compounds 10 and 20 μM); for % of SALL4 protein reduction, based on densitometry values: 24 h
Text: as §1

IKZF3 = IKZF3 degradation assay, H929 cell line (western blot densitometry); assay type: cell-based; conditions: H929 cells; for % of IKZF3 protein reduction based on densitometry values, IKZF3 Band I / % of IKZF3 protein reduction based on densitometry values, IKZF3 Band II: 24 h; for % of protein reduction based on densitometry values, IKZF3 (24 H): summary Table 10, 10 and 20 μM

Sequence of CRBN-DDB1 protein complex (Q96SW2 whole entry): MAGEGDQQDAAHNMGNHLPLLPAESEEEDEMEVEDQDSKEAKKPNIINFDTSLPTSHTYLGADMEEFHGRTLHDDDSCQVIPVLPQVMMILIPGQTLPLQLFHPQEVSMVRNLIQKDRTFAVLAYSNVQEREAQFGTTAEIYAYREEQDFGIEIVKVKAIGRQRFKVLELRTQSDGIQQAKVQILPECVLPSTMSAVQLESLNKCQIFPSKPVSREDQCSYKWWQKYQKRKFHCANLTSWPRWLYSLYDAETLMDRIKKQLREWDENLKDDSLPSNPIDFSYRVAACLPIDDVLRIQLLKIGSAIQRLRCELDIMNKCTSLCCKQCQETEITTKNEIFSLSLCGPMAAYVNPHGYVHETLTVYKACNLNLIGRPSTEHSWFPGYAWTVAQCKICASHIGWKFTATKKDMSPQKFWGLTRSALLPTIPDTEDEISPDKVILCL
Sequence of CRBN-DDB1 protein complex (Q16531 whole entry partner): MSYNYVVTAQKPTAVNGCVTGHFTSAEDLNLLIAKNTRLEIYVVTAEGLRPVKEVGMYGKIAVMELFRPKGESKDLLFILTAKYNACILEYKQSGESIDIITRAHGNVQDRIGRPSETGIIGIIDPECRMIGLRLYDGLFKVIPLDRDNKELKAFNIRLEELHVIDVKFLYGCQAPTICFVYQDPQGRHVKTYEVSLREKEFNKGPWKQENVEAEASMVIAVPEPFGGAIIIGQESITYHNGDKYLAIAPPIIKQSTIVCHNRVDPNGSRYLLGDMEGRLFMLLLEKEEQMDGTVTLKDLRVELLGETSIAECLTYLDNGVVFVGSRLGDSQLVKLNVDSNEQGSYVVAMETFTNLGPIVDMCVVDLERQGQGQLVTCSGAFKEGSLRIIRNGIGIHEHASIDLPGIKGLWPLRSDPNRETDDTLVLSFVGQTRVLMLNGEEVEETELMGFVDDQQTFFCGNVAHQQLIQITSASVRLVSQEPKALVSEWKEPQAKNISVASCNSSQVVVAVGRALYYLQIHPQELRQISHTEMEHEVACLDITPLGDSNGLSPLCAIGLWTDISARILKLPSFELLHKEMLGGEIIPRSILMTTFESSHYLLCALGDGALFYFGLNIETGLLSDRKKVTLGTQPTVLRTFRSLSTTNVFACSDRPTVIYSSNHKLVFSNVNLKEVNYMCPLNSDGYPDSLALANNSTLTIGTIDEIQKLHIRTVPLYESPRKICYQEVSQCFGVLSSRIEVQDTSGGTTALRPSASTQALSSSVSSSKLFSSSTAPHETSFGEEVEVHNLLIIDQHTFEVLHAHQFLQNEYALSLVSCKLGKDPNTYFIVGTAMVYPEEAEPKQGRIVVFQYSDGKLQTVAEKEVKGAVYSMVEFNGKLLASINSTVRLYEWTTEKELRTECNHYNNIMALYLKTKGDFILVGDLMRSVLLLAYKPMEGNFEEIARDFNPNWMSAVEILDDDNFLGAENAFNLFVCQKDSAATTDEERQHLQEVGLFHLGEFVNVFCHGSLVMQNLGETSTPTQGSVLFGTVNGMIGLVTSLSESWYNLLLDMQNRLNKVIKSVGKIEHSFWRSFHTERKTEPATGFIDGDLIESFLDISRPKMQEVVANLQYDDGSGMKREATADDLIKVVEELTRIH

| SMILES | pKi [1] | % of protein reduction based on densitometry values, IKZF 1 (24 H) (IKZF1) | % of protein reduction based on densitometry values, CK1α (24 H) (CK1α) | % of protein reduction based on densitometry values, SALL4 (24 H) (SALL4) | % of IKZF3 protein reduction based on densitometry values, IKZF3 Band I (IKZF3; 10 μM) | % of IKZF3 protein reduction based on densitometry values, IKZF3 Band II (IKZF3; 10 μM) | % of IKZF3 protein reduction based on densitometry values, IKZF3 Band I (IKZF3; 20 μM) | % of IKZF3 protein reduction based on densitometry values, IKZF3 Band II (IKZF3; 20 μM) | % of protein reduction based on densitometry values, IKZF3 (24 H) (IKZF3) | % of IKZF1 α protein reduction based on densitometry values (IKZF1; 10 μM) | % of IKZF1 α protein reduction based on densitometry values (IKZF1; 20 μM) | % of CK1α protein reduction, based on densitometry values (CK1α; 10 μM) | % of CK1α protein reduction, based on densitometry values (CK1α; 20 μM) | % of SALL4 protein reduction, based on densitometry values (SALL4; 10 μM) | % of SALL4 protein reduction, based on densitometry values (SALL4; 20 μM) |
| --- | --- | --- | --- | --- | --- | --- | --- | --- | --- | --- | --- | --- | --- | --- | --- |
| O=C1CCC(NC(=O)c2cccc3c2NC(=O)C3)C(=O)N1 (centres unmarked) [Compound 1, N-(2,6-dioxopiperidin-3-yl)-2-oxoindoline-7-carboxamide] | 4.30 to 5.00 | ≤25% (≤25% for 0-25% of IKZF1 protein reduction) | ≤25% (≤25% for 0-25% of CK1a protein reduction) | ≤25% (≤25% for 0-25% of SALL4 protein reduction) |  |  |  |  |  |  |  |  |  |  |  |
| O=C1CCC(NC(=O)c2cc(F)cc3[nH]cnc23)C(=O)N1 (centres unmarked) [Compound 8, N-(2,6-dioxopiperidin-3-yl)-6-fluoro-1H-benzo[d]imidazole-4-carboxamide] | 5.00 to 6.00 | ≤25% (≤25% for 0-25% of IKZF1 protein reduction) | ≤25% (≤25% for 0-25% of CK1a protein reduction) | ≤25% (≤25% for 0-25% of SALL4 protein reduction) |  |  |  |  |  |  |  |  |  |  |  |
| Cc1nc2c(C(=O)NC3CCC(=O)NC3=O)cccc2[nH]1 (centres unmarked) [Compound 15, N-(2,6-dioxopiperidin-3-yl)-2-methyl-1H-benzo[d]imidazole-4-carboxamide] | > 6.00 | ≤25% (≤25% for 0-25% of IKZF1 protein reduction) | ≤25% (≤25% for 0-25% of CK1a protein reduction) | ≤25% (≤25% for 0-25% of SALL4 protein reduction) | ≤25% (≤25% for 0-25% of IKZF3 protein reduction) | ≤25% (≤25% for 0-25% of IKZF3 protein reduction) | ≤25% (≤25% for 0-25% of IKZF3 protein reduction) | ≤25% (≤25% for 0-25% of IKZF3 protein reduction) | ≤25% (≤25% for 0-25% of IKZF3 protein reduction) |  |  |  |  |  |  |
| O=C1CCC(NC(=O)c2cccc3[nH]c(C(F)F)nc23)C(=O)N1 (centres unmarked) [Compound 23, 2-(difluoromethyl)-N-(2,6-dioxopiperidin-3-yl)-1H-benzo[d]imidazole-7-carboxamide] | 5.00 to 6.00 | ≤25% (≤25% for 0-25% of IKZF1 protein reduction) | ≤25% (≤25% for 0-25% of CK1a protein reduction) | ≤25% (≤25% for 0-25% of SALL4 protein reduction) |  |  |  |  |  |  |  |  |  |  |  |
| Nc1cccc2c1C(=O)N(C1CCC(=O)NC1=O)C2=O (centres unmarked) [Pomalidomide, reference compound] |  | ≥75% (≥75% for 75-100% of IKZF1 protein reduction) | >25% (>25% for 26-74% of CK1a protein reduction) | ≥75% (≥75% for 75-100% of SALL4 protein reduction) | ≥75% (≥75% for 75-100% of IKZF3 protein reduction) | ≥75% (≥75% for 75-100% of IKZF3 protein reduction) | ≥75% (≥75% for 75-100% of IKZF3 protein reduction) | ≥75% (≥75% for 75-100% of IKZF3 protein reduction) | ≥75% (≥75% for 75-100% of IKZF3 protein reduction) | ≥75% (≥75% for 75-100% of IKZF1 protein reduction) | ≥75% (≥75% for 75-100% of IKZF1 protein reduction) | >25% (>25% for 26-74% of CK1a protein reduction) | >25% (>25% for 26-74% of CK1a protein reduction) | ≥75% (≥75% for 75-100% of SALL4 protein reduction) | ≥75% (≥75% for 75-100% of SALL4 protein reduction) |
| Cn1cnc2c(C(=O)NC3CCC(=O)NC3=O)cccc21 (centres unmarked) [Compound 4, N-(2,6-dioxopiperidin-3-yl)-1-methyl-1H-benzo[d]imidazole-4-carboxamide] | 5.00 to 6.00 | ≤25% (≤25% for 0-25% of IKZF1 protein reduction) | ≤25% (≤25% for 0-25% of CK1a protein reduction) | ≤25% (≤25% for 0-25% of SALL4 protein reduction) |  |  |  |  |  |  |  |  |  |  |  |
| O=C1CCC(NC(=O)c2c(F)ccc3[nH]cnc23)C(=O)N1 (centres unmarked) [Compound 7, N-(2,6-dioxopiperidin-3-yl)-5-fluoro-1H-benzo[d]imidazole-4-carboxamide] | 5.00 to 6.00 | ≤25% (≤25% for 0-25% of IKZF1 protein reduction) | ≤25% (≤25% for 0-25% of CK1a protein reduction) | ≤25% (≤25% for 0-25% of SALL4 protein reduction) |  |  |  |  |  |  |  |  |  |  |  |

Continued, in another order:

| pKi [1] | SMILES | % of protein reduction based on densitometry values, IKZF 1 (24 H) (IKZF1) | % of protein reduction based on densitometry values, CK1α (24 H) (CK1α) | % of protein reduction based on densitometry values, SALL4 (24 H) (SALL4) | % of IKZF3 protein reduction based on densitometry values, IKZF3 Band I (IKZF3; 10 μM) | % of IKZF3 protein reduction based on densitometry values, IKZF3 Band II (IKZF3; 10 μM) | % of IKZF3 protein reduction based on densitometry values, IKZF3 Band I (IKZF3; 20 μM) | % of IKZF3 protein reduction based on densitometry values, IKZF3 Band II (IKZF3; 20 μM) | % of protein reduction based on densitometry values, IKZF3 (24 H) (IKZF3) | % of IKZF1 α protein reduction based on densitometry values (IKZF1; 10 μM) | % of IKZF1 α protein reduction based on densitometry values (IKZF1; 20 μM) | % of CK1α protein reduction, based on densitometry values (CK1α; 10 μM) | % of CK1α protein reduction, based on densitometry values (CK1α; 20 μM) | % of SALL4 protein reduction, based on densitometry values (SALL4; 10 μM) | % of SALL4 protein reduction, based on densitometry values (SALL4; 20 μM) |
| --- | --- | --- | --- | --- | --- | --- | --- | --- | --- | --- | --- | --- | --- | --- | --- |
| > 6.00 | O=C1CCC(NC(=O)c2cccc3[nH]c(C(F)(F)F)nc23)C(=O)N1 (centres unmarked) [Compound 25, N-(2,6-dioxopiperidin-3-yl)-2-(trifluoromethyl)-1H-benzo[d]imidazole-7-carboxamide] | ≤25% (≤25% for 0-25% of IKZF1 protein reduction) | ≤25% (≤25% for 0-25% of CK1a protein reduction) | ≤25% (≤25% for 0-25% of SALL4 protein reduction) |  |  |  |  |  |  |  |  |  |  |  |
| 4.30 to 5.00 | O=C1CCC(NC(=O)c2ccnc3cc[nH]c23)C(=O)N1 (centres unmarked) [Compound 37, N-(2,6-dioxopiperidin-3-yl)-1H-pyrrolo[3,2-b]pyridine-7-carboxamide] | ≤25% (≤25% for 0-25% of IKZF1 protein reduction) | ≤25% (≤25% for 0-25% of CK1a protein reduction) | ≤25% (≤25% for 0-25% of SALL4 protein reduction) |  |  |  |  |  |  |  |  |  |  |  |
| 5.00 to 6.00 | Cc1nc2c(C(=O)NC3CCC(=O)NC3=O)ccnc2[nH]1 (centres unmarked) [Compound 36, N-(2,6-dioxopiperidin-3-yl)-2-methyl-3H-imidazo[4,5-b]pyridine-7-carboxamide] | ≤25% (≤25% for 0-25% of IKZF1 protein reduction) | ≤25% (≤25% for 0-25% of CK1a protein reduction) | ≤25% (≤25% for 0-25% of SALL4 protein reduction) |  |  |  |  |  |  |  |  |  |  |  |
| 5.00 to 6.00 | CC(C)Cc1nc2c(C(=O)NC3CCC(=O)NC3=O)cccc2[nH]1 (centres unmarked) [Compound 24, N-(2,6-dioxopiperidin-3-yl)-2-isobutyl-1H-benzo[d]imidazole-7-carboxamide] | ≤25% (≤25% for 0-25% of IKZF1 protein reduction) | ≤25% (≤25% for 0-25% of CK1a protein reduction) | ≤25% (≤25% for 0-25% of SALL4 protein reduction) |  |  |  |  |  |  |  |  |  |  |  |
